Structures are written as SMILES.

What all share (format): cell-based, human
The test system of one assay is Caco-2 cell monolayer. The assay can be described thus: Arginine absorption assay (transport across Caco-2 monolayer, 3H-arginine). The following applies: for Transport rate (arginine): 10 mM L-arginine. Here is the method:
In measuring transport of arginine across the Caco-2 cell monolayer, both sides of the transwells were washed with arginine incubation buffer consisting of: 137 mM NaCl, 10 mM Hepes, 0.3 mM NaH2PO4, 0.3 mM K2HPO4, 5.4 mM KCl, 2.8 mM CaCl2, 1 mM MgSO4, 10 mM glucose, adjusted to pH 7.4. Then, the cell layer was pre-incubated in the incubation buffer at 37° C. for 1 h. The volumes of incubation buffer were 0.2 mL and 0.9 mL in the apical and basolateral chambers, respectively. The cells were replaced with fresh incubation medium in both chambers prior to the transport experiment. The transport experiment was initiated by replacing the incubation solution on the apical side with solution containing 10 mM of L-arginine in which 0.125 μCi/mL of L-[^3H]-arginine was included. At designated time intervals, 10 μL-solution samples were removed from the basolateral side and radioactivity of each sample was counted using a microplate liquid scintillation counter (TopCount, Packard NXT). During the experiment, when a 10 μL-solution sample was removed from the basolateral side every time, 10 μL buffer was supplemented to keep the volume constant. The uptake of [^3H]-mannitol was used to correct for nonspecific transport of molecules across the monolayer membrane. Results were expressed as the nanomoles of arginine transport across the Caco-2 cell monolayers with respect to time in minutes (nmol/min).

The subject of another assay is Caco2 cells. The assay can be described thus: Folate uptake assay (3H-folate uptake in Caco2 cells). The following applies: compound 0.1 μM; for Transport rate (folate uptake): 2 days pretreatment, 5 μM folate, pH 6.0. As to the method: The Caco2 cells were subjected to folate uptake test in a manner similar to that described in the glucose uptake assay in Example 1 above. In the folate uptake test, the Caco2 cells were pretreated with the culture medium containing 5% FBS and purified ginsenosides at a concentration of […] for 2 days before the cells were cultured in a folate uptake buffer (Hank's balanced salt solution, supplemented with 0.14 g/L CaCl2, 0.1 g/L MgCl2, and 0.1 g/L MgSO4, pH 6.0) for 1 hour. The buffer was then aspirated, and uptake was initiated by adding 0.2 mL of fresh folate uptake buffer containing 2 μCi/mL radioactive folate (3,5,7,9-^3H-folic acid, 25 mCi/mmol, ARC) and cold, unlabeled folate giving a final folate concentration of 5 μM. Folate uptake was terminated by removing the uptake buffer at designated time intervals. The cells were then washed three times with ice-cold PBS and lysed by adding 0.2 mL of 0.2 N NaOH, followed by incubating at 65° C. for 20 min. Intracellular uptake of ^3H-folate was determined by transferring 20 μL of the cell lysate to the filter-bottomed UniFilter plates (Perkin-Elmer) and counting as described previously in Example 1. The amount of folate accumulated in the cells was calculated and normalized to protein concentration, and uptake rate was expressed as picomoles of folate per minutes per milligram of cell protein (pmol/min/mg). Protein concentration was determined by a standard Bicinchoninic acid (BCA) protein assay as described above.
A general note: Caco-2 cells form a polarised layer with tight junctions and transporters.

The subject of a further assay is Caco2 cell monolayer. As to the kind of experiment: Glucose absorption assay (transport across Caco2 monolayer in transwell, 14C-glucose). As to conditions: for Transport rate (glucose): 2 days pretreatment, 25 mM glucose. Here is the method:
For glucose absorption assay, 0.3 mL (10^5 cell/ml) of Caco2 cells were seeded into the apical chamber of each transwell and the basolateral chamber was added with 1 ml of culture medium (as indicated above). Costar transwell inserts (No. 3414, Corning Incorporated, NY, USA) separate each well in 24-well plates into an apical chamber (defined as a chamber above the insert) and a basolateral chamber (defined as a chamber below the insert). The culture medium in each transwell was changed every 2 days in both of the apical and basolateral chambers. To ensure the integrity of tight junction of Caco2 monolayer membrane formed in the transwell, a Trans-Epithelial Electrical Resistance (TEER) assay was conducted using Millicell®-ERS (Millipore EVOM-6; World Precision Instrument, Sarasota, Fla., USA) to measure the TEER between apical and basolateral chambers of the transwell. As the measured TEER reached 300 to 450 Ωcm^2 with the presence of differentiated brush border on the […] side of the cell on the 14th to 21st day of the culture, the Caco2 monolayer was ready for the glucose absorption test. The TEER values were taken before, during, and after each experiment to justify consistency of the data collected.
Glucose absorption was initiated by replacing the culture medium in the basolateral chamber with fresh glucose absorption buffer and the culture medium in the apical chamber with 0.2 mL of the glucose absorption buffer containing 2 μCi/ml of radioactive D-[^14C]-glucose (60 Ci/mmol, American Radiolabeled Chemicals, ARC, St. Louis, Mo., USA) and unlabeled cold glucose to give glucose at a final concentration of 25 mM. A series of five 10-μL samples were taken from the basolateral chamber at every 5 or 10 minute intervals. In order to maintain the constant buffer volume, same amount of sample buffer were added back to the basolateral chamber after withdrawn of each sample. The samples were transferred to the filter-bottomed UniFilter plates (Perkin-Elmer, Wellesley, Mass., USA) and dried in a vacuum oven at 37° C. The bottom of the UniFilter plate was sealed and 25 μL of the counting solution were added into each well. Adhesive plate sealers were used in place of the lids and radioactivity of each sample was counted using the microplate liquid scintillation counter (TopCount, Packard NXT, Packard BioScience Company, Meriden, Conn., USA). The effect of test compounds on glucose absorption was expressed as the nmoles of glucose accumulated in the basolateral chamber with respect to time in minutes (nmol/min). The glucose absorption rate was obtained by calculating the slope of the straight line from the time zero to the end point of the graphic data of each figure.

`CC(C)=CCC[C@](C)(O[C@@H]1O[C@H](CO[C@@H]2O[C@H](CO)[C@@H](O)[C@H](O)[C@H]2O)[C@@H](O)[C@H](O)[C@H]1O)[C@H]1CC[C@]2(C)[C@@H]1[C@H](O)C[C@@H]1[C@@]3(C)CC[C@H](O[C@@H]4O[C@H](CO)[C@@H](O)[C@H](O)[C@H]4O[C@@H]4O[C@H](CO)[C@@H](O)[C@H](O)[C@H]4O)C(C)(C)[C@@H]3CC[C@]12C` [Rb1, ginsenoside Rb1]: in the assay on Caco-2 cell monolayer (compound 0.01 μM), the “Percentage (arginine transport, control = 100)” value is 90.30% and the “Transport rate (arginine)” value worked out at 9.6487 ± 0.9377 nmol/min. In the assay with Caco-2 cell monolayer (compound 0.1 μM), the “Percentage (arginine transport, control = 100)” value came out at 111.08% and the “Transport rate (arginine)” value was found to be 11.8699 ± 1.9300 nmol/min. In the assay on Caco-2 cell monolayer (compound 1 μM), the “Percentage (arginine transport, control = 100)” value is 151.12% and the “Transport rate (arginine)” value came out at 16.1484 ± 0.6228 nmol/min. Also, in the assay with Caco2 cells, the “Percentage (folate uptake, control = 100)” value worked out at 108.72%; the “folate uptake versus non-treated control (in words, FIG. 5)” value is reported as “increased folate uptake”; the “Transport rate (folate uptake)” value was found to be 1.8710 ± 0.0320 pmol/mg/min. Also, in the assay on Caco2 cell monolayer (compound 0.01 μM), the “Percentage (glucose transport, control = 100)” value was determined as 102.26% and the “Transport rate (glucose)” value was determined as 2.2306 ± 0.1034 nmol/min. In addition, in the assay on Caco2 cell monolayer (compound 0.1 μM), the “Percentage (glucose transport, control = 100)” value worked out at 128.85% and the “Transport rate (glucose)” value worked out at 2.8107 ± 0.1982 nmol/min. In addition, in the assay with Caco2 cell monolayer (compound 0.1 μM to 5 μM), the “glucose transport rate (in words, FIG. 1)” value is on record as “increased”. For the same compound, in the assay with Caco2 cell monolayer (compound 1 μM), the “Percentage (glucose transport, control = 100)” value is listed as 157.01% and the “Transport rate (glucose)” value amounted to 3.4250 ± 0.4805 nmol/min.
As to `CC(C)=CCC[C@](C)(O)C1CC[C@]2(C)C1C(O)CC1[C@@]3(C)CCC(O)C(C)(C)C3C(OC3OC(CO)C(O)C(O)C3O)C[C@]12C` (some centres unmarked) [Rh1, ginsenoside Rh1], in the assay on Caco-2 cell monolayer (compound 0.01 μM), the “Percentage (arginine transport, control = 100)” value turned out to be 105.56% and the “Transport rate (arginine)” value stood at 11.2792 ± 0.7768 nmol/min. Further, in the assay on Caco-2 cell monolayer (compound 0.1 μM), the “Percentage (arginine transport, control = 100)” value was determined as 109.13% and the “Transport rate (arginine)” value is 11.6615 ± 0.8085 nmol/min. In the assay with Caco-2 cell monolayer (compound 1 μM), the “Percentage (arginine transport, control = 100)” value is listed as 134.02% and the “Transport rate (arginine)” value stood at 14.3209 ± 0.7418 nmol/min. In addition, in the assay on Caco2 cells, the “Percentage (folate uptake, control = 100)” value is on record as 49.36%; the “folate uptake versus non-treated control (in words, FIG. 5)” value is on record as “decreased”; the “Transport rate (folate uptake)” value is 0.8494 ± 0.453 pmol/mg/min. Further, the “effect on glucose absorption (in words)” value in the assay on Caco2 cell monolayer is reported as “inhibitory effect”. In addition, in the assay on Caco2 cell monolayer (compound 0.01 μM), the “Percentage (glucose transport, control = 100)” value amounted to 62.20% and the “Transport rate (glucose)” value is listed as 1.3568 ± 0.1090 nmol/min. In the assay with Caco2 cell monolayer (compound 0.1 μM), the “Percentage (glucose transport, control = 100)” value is 74.86% and the “Transport rate (glucose)” value came out at 1.6329 ± 0.1976 nmol/min. For the same compound, in the assay on Caco2 cell monolayer (compound 1 μM), the “Percentage (glucose transport, control = 100)” value is on record as 61.02% and the “Transport rate (glucose)” value came to 1.3310 ± 0.8356 nmol/min.
`CC(C)=CCC[C@](C)(O[C@@H]1O[C@H](CO)[C@@H](O)[C@H](O)[C@H]1O)[C@H]1CC[C@]2(C)[C@@H]1[C@H](O)C[C@@H]1[C@@]3(C)CC[C@H](O)C(C)(C)[C@@H]3[C@@H](O)C[C@]12C` [GF1, ginsenoside F1]: the “Percentage (arginine transport, control = 100)” value in the assay on Caco-2 cell monolayer (compound 0.01 μM) is reported as 126.74%; in the assay with Caco-2 cell monolayer (compound 0.1 μM) it was 118.73%; in the assay on Caco-2 cell monolayer (compound 1 μM), 97.06%. In addition, the figures for the “Transport rate (arginine)” value in the assay with Caco-2 cell monolayer (compound 0.01 μM), with Caco-2 cell monolayer (compound 0.1 μM) and with Caco-2 cell monolayer (compound 1 μM) were 13.5425 ± 1.8630 nmol/min, 12.6865 ± 0.2964 nmol/min and 10.3711 ± 0.6574 nmol/min, respectively. The figures for the “Percentage (glucose transport, control = 100)” value in the assay on Caco2 cell monolayer (compound 0.01 μM), with Caco2 cell monolayer (compound 0.1 μM) and in the assay on Caco2 cell monolayer (compound 1 μM) were 141.12%, 153.80% and 150.65%, respectively. Further, the figures for the “Transport rate (glucose)” value in the assay on Caco2 cell monolayer (compound 0.01 μM), in the assay on Caco2 cell monolayer (compound 0.1 μM) and in the assay with Caco2 cell monolayer (compound 1 μM) were 3.0783 ± 0.9550 nmol/min, 3.3551 ± 0.3248 nmol/min and 3.2862 ± 0.3429 nmol/min, respectively.
As to `CC(C)=CCC[C@](C)(O)[C@H]1CC[C@]2(C)[C@@H]1[C@H](O)C[C@@H]1[C@@]3(C)CC[C@H](O)C(C)(C)[C@@H]3[C@@H](O)C[C@]12C` [Rga, 20(S)-protopanaxatriol], the results for the “Percentage (arginine transport, control = 100)” value in the assay on Caco-2 cell monolayer (compound 0.01 μM), with Caco-2 cell monolayer (compound 0.1 μM) and with Caco-2 cell monolayer (compound 1 μM) were 118.16%, 100.66% and 95.38%, respectively. The figures for the “Transport rate (arginine)” value in the assay on Caco-2 cell monolayer (compound 0.01 μM), in the assay on Caco-2 cell monolayer (compound 0.1 μM) and in the assay on Caco-2 cell monolayer (compound 1 μM) were 12.6265 ± 0.9875 nmol/min, 10.7555 ± 0.4532 nmol/min and 10.1920 ± 1.2390 nmol/min, respectively. In addition, the “Percentage (glucose transport, control = 100)” value with Caco2 cell monolayer (compound 0.01 μM) turned out to be 116.69%; with Caco2 cell monolayer (compound 0.1 μM) it was 167.15%; with Caco2 cell monolayer (compound 1 μM) it was 104.01%. Further, the “Transport rate (glucose)” value was 2.5454 ± 0.7808 nmol/min in the assay on Caco2 cell monolayer (compound 0.01 μM), 3.6462 ± 0.4105 nmol/min in the assay with Caco2 cell monolayer (compound 0.1 μM) and 2.2689 ± 0.2598 nmol/min in the assay on Caco2 cell monolayer (compound 1 μM).

Source of the values: patent US20090181904A1, “METHOD FOR REGULATING NUTRIENT ABSORPTION WITH GINSENOSIDES” (priority 2005, published 2009).
